# Earlier results, collected in patent publication US20130089529A1, “AGENT FOR OSTEOGENESIS USING SUBSTANCE-P AND PREPARATION PROCESS THEREOF” (UNIVERSITY-INDUSTRY COOPERATION GROUP OF KYUNGHEE UNIVERSITY, priority 2010, published 2013).
# Key:
# MSCs = settings: in vitro 3-D collagen gel; by inducing matrix-degrading enzymes and inhibiting their inhibitors; previous study KR 10-2006-0037176
# CD29+ MSCs = settings: mice without wound, intravenous injection of Substance-P, versus non-injected mice; previous study KR 10-2006-0037176
substance,measurement,setting,value
Substance-P,Migration of MSCs in 3-D collagen gel,MSCs,stimulated migration of MSCs
same,"CD29+ MSCs mobilized into peripheral blood, relative to non-injected mice",CD29+ MSCs,approximately 15 times
